pIC50: −log10 of the molar value.
system: Proteus mirabilis 29906 (Pm) lysate; assay: Inhibition of formation of TMA from choline in Proteus mirabilis lysate (d9-choline to d9-TMA, LC-MS/MS); format: biochemical; conditions: conversion of choline to TMA; Pm lysate 1.5 mg/mL protein, 50 μM d9-choline chloride, 37° C., two hours; read-out: TMA Inhibition (IC50, mol/L)
Method: EXAMPLE 2 Assay for identifying and characterizing compounds that inhibit the formation of TMA from choline.
This example provides an exemplary assay for identifying and characterizing compounds that inhibit the formation of TMA from choline.
Proteus mirabilis 29906 (Pm) strain was grown aerobically overnight in 500 ml of Nutrient Broth media (3 g/L beef extract, 5 g/L Peptone; Difco #234000) at 37° C. with 250 rpm shaking. The biomass was pelleted by centrifugation at 6000×g for 12 minutes at 4° C. The cell pellet was suspended in 240 mL of ice-cold 1× Phosphate Buffered Saline (Ca^2+ and Mg^2+ free). Ninety micrograms of Lysozyme (Sigma #L6876 Lot #SLBG8654V; Sigma-Aldrich Corp., St. Louis, Mo.) was added and incubated with 320 rpm shaking for 30 minutes at 4° C. Lysis was achieved via French press with a 4° C. prechilled 1″ diameter chamber at 1000 psi (high ratio; internal PSI equivalent ˜16000). The lysate was centrifuged at 6,000×g for 12 minutes at 4° C. to pellet extra debris. A protein concentration of the centrifuged lysate supernatant was determined by a BCA Protein Assay Kit (Pierce #23225; Thermo Fisher Scientific Co., Waltham, Mass.) and protein concentration adjusted to 3 mg/ml with 1× Dulbecco's phosphate buffered saline (DPBS). The centrifuged supernatant lysate was aliquoted into 20 mL volumes and stored frozen at −80° C.
Proteus mirabilis 29906 (Pm) lysate was diluted to 1.5 mg/mL protein with 1×DPBS. Choline chloride (CC) (1M stock) was added to reach a final concentration of 2.5 mM choline chloride. The mixture was mixed using a vortex mixer for approximately 15 seconds and incubated at 37° C. for 22 hours. After incubation, 150 μL of CC-treated Pm lysate was dispensed into a deep-well plate (polypropylene, 2 mL volume, Corning Axygen catalogue #P-DW-20-C). Candidate IC50 compounds from TABLE 1 and vehicle control (respective vehicle control of DMSO or water), or control compounds (IC50 control, 8-Quinolinol hemisulfate salt (Sigma Catalog #55100)) were added at a 1:100 dilution (e.g., 1.5 μL per well). The plates were agitated on a plate shaker for 1 minute. d9-choline chloride (1.5 μL of 5 mM) was added to all wells to reach a final d9-choline chloride concentration of 50 μM.
The plates were again agitated on a plate shaker for 1 minute and incubated at 37° C. for two hours. After incubation, 1.5 μL of formic acid was added to each well (final concentration=1% formic acid). The plates were agitated on a plate shaker for 1 minute and placed on ice. Cell lysate samples were spiked with stable isotope labeled internal standard (22.5 μL of 6 μg/mL of 13C3-trimethylamine (13C3-TMA) was added to each sample), then d9-trimethylamine (d9-TMA), trimethylamine (TMA) and 13C3-TMA were isolated from the lysate after protein precipitation as described below. Acetonitrile acidified with 0.1% formic acid, 600 μL, was added to each sample which was then centrifuged (2,100 g for 20 minutes) to pellet the protein and other precipitates. The supernatant was removed and analyzed as described below. The TMA, d9-TMA and 13C3-TMA in the isolated supernatant samples were subjected to gradient High Performance Liquid Chromatography (HPLC) analysis on a Waters Atlantis HILIC Silica column, from Waters Corp., Milford, Mass., (2.1×50 mm, 3 μm particles) with an Atlantis Silica HILIC Sentry guard column, from Waters Corp., Milford, Mass., (100 Å, 3 μm, 2.1 mm×10 mm), 10 mM ammonium formate in water with 0.1% formic acid as mobile phase A and 0.1% formic acid in acetonitrile as mobile phase B. Detection and quantitation was achieved by tandem mass spectrometry operating under multiple reaction monitoring (MRM) MS/MS conditions (m/z 60.1→44.1 for TMA, m/z 69.1→49.1 for d9-TMA, m/z 63.0→46.1 for 13C3-TMA). TMA and d9-TMA calibration standards (STD), prepared in 80/20/0.1% acetonitrile/Water/Formic Acid, were used to construct a regression curve by plotting the response (peak area TMA/peak area 13C3-TMA) versus concentration for each standard. […]

Row | Structure (SMILES) | pIC50
1 | CC[N+](CC)(CCBr)CCCN=C=S [Compound 7, N-(2-Bromoethyl)-3-isothiocyanato-N,N-diethylpropan-1-aminium triflate] | 4.74
2 | CCOC(=O)C(=O)C[N+](C)(C)CCCN=C=S [Compound 6] | 4.84
3 | CC[N+](C)(CC)CCCN=C=S [Compound 2, 3-Isothiocyanato-N,N-diethyl-N-methylpropanaminium iodide] | 4.97
4 | CC[N+](CC)(CC#N)CCCN=C=S [Compound 9, N-Cyanomethyl-3-isothiocyanato-N,N-diethylpropan-1-aminium bromide] | 4.22
5 | CCOC(=O)C(=O)C[N+](C)(C)CCN=C=S [Compound 5, N-(Ethoxypropyl-2,3-dione)-2-isothiocyanato-N,N-dimethylethan-1-aminium bromide] | 3.11

Reference: patent US10213407B2, “Compounds and methods for inhibiting production of trimethylamine” (The Procter & Gamble Company, priority 2015, dated 2019)
